Experimental data taken from patent US20020155172A1, “Methods and compounds for decreasing cell toxicity or death” (priority 2000, published 2002).

Columns and labels:
[1] = system: Q79-expressing HeLa cells; experiment: Turnover of S35-labeled expanded polyglutamine repeats; assay type: cell-based
Protocol: FIG. 8A is a set of scanned autoradiograms showing the effect of Congo red on expanded polyglutamine repeat turn-over, as assessed by relative levels of S^35 labeled polyQ (Q79) protein, with or without Congo red treatment. Q79-HA expressing cells were metabolically labeled with S^35 methionine for one hour. Cells were harvested one and 24 hours after labeling. PolyQ protein was immunoprecipitated with an anti-HA antibody, and the proteins were separated by electrophoresis before blotting.
We next determined whether inhibition and disruption of Q79 oligomers changed its turnover kinetics by measuring pulse-S^35-labeled polyglutamine levels in the presence or absence of Congo red.

[2] = system: GST-Q81 beads; experiment: Chemical absorption assay, Q81; assay type: binding; conditions: 25 μM of each (FIG. 6B)
Protocol: FIG. 6B is a graph of the percent of binding of various compounds to amyloid-like Q81 aggregates measured using a chemical absorption assay. The anti-amyloid compounds minocycline, Chrysamine G, Rolitetracycline, iota carrageenan, dextran 500 (dextran), or Congo red (25 μM of each) were pre-absorbed with Q81 GST recombinant protein and the percentage absorbance of the compound remaining in the supernatant after absorption with GST-Q81 beads is plotted on the y-axis.
To determine if Congo red and its derivatives directly bind to expanded polyglutamine aggregates, we designed a chemical absorption assay. This assay measures the remaining Congo red in the supernatant after incubating the supernatant with GST-tagged polyglutamine beads, and removing the GST-polyglutamine beads by centrifugation. This assay was carried out as follows. Recombinant protein GST-Q19, GST-Q62, and GST-Q81 (containing 19, 62, and 81 polyglutamines, respectively) was purified from E. coli by glutathione beads. After several washes with PBS containing protease inhibitors, the beads were allowed to settle to the bottom of the tube at 24° C. for 10 minutes. The polyglutamine-bound beads were aliquoted and diluted with two volumes of 10 μg/ml of Congo red in PBS. The beads were mixed and centrifuged at 15,000 rpm for 2 minutes and the supernatant was removed and diluted 1:100. The percentage absorbance of the compound remaining in the supernatant after absorption with the GST-polyQ beads was then detected. In addition, Congo red- or PBS-only treated polyglutamine polypeptide bead pellets were washed three times with 100 volumes of PBS and then the protein was separated by 12% polyacrylamide gels and immunoblotted as mentioned above. Some blots were used for immunostaining with anti-polyglutamine antibody (EM48). Other blots were left unstained to visualize the red color of Congo red that entered the gel along with the polyglutamine protein.
Binding of the above-identified compounds to amyloid-like Q81 aggregates was also assessed by a chemical absorption assay. The compounds indicated in FIG. 19 (25 μM of each) were pre-absorbed with a Q81 GST recombinant protein and the percentage absorbance of the compound remaining in the supernatant after absorption with GST-Q81 beads was then detected.

[3] = system: semi-purified Q79 oligomers from HeLa cells expressing transfected Q79-GFP; experiment: Disassembly of semi-purified Q79 oligomers; assay type: biochemical; conditions: 25 μM (FIG. 6C); fluorescence microscopy
Protocol: FIG. 6C is a set of scanned images of the disruption of pre-formed Q79-GFP oligomers by Congo red, minocycline, or rolitetracycline. Lysates from Q79-GFP expressing cells were treated with 25 μM of the indicated compound, and visualized by fluorescence microscopy.
To determine if binding to polyglutamine is sufficient to inhibit the aggregate formation, we compared the ability of minocycline, rolitetracycline, iota carrageenan, dextran, chrysamine G, and Congo red to bind to 81-repeat polyglutamine polypeptide by the chemical absorption assay described above (FIG. 6B). […] To examine the relationship of compound binding and its ability to dissolve expanded polyglutamine aggregates, we tested their effects on semi-purified Q79 oligomers from HeLa cells expressing transfected Q79-GFP, viewed using a microscope.

[4] = system: HSP40 and HSP70; experiment: Expression of chaperone proteins; assay type: cell-based; conditions: Q79-expressing (HA-Q79) HeLa cells
From the text: We examined whether the destabilizing effect of Congo red on polyglutamine oligomers in HeLa cells expressing expanded polyglutamine repeats was caused indirectly through increased expression of endogenous chaperones (FIG. 5E). Lysates from Congo red-treated or control cells expressing expanded polyglutamine repeats (HA-[…]) were separated by SDS-PAGE and probed with anti-HSP70, anti-HSP40, and anti-HA antibodies to detect polyglutamine repeats.

[5] = system: HD transgenic mice (R62); experiment: Fasting glucose levels in blood; assay type: in vivo; conditions: 6 hours of fasting, intraperitoneal delivery
From the text: FIG. 10B is a table showing the effect of intraperitoneal delivery of Congo red or PBS (vehicle) on fasting glucose levels in wild-type (WT) or HD transgenic mice.
In addition, the ability of Congo red to inhibit the formation as well as to disrupt preformed polyglutamine oligomers allowed us to examine the role of polyglutamine aggregates in neuronal dysfunction and degeneration characteristic of polyglutamine expansion diseases. In these studies, we used the animal model of Huntington's disease (R62), which expresses the truncated form of huntingtin with 139 CAG repeats Mangiarini et al. (supra). We took advantage of our finding that in addition to inhibiting polyglutamine oligomerization, Congo red also disrupts pre-formed oligomers, thus allowing assessment of the impact of Congo red on disease progression after formation of polyglutamine aggregates and the onset of symptoms. R62 transgenic mice and CBAxC57B1/6 F1 wild type littermates were obtained from Jackson Laboratories (Bar Harbor, Me.) at the age of five weeks. […]
R62 mice also develop severe diabetes due to the presence of polyglutamine aggregates in the pancreas. […] The levels of glucose in the blood after 6 hours of fasting were measured from the serum using the Accu-Check strip kit (Roche, Co.).

Nc1c(/N=N/c2ccc(-c3ccc(/N=N/c4cc(S(=O)(=O)O)c5ccccc5c4N)cc3)cc2)cc(S(=O)(=O)O)c2ccccc12 [Congo red, diphenyldiazo-bis-alpha-napthylaminesulfonate]
steady state levels of HA-Q79 ([1]; Western blot, compared to negative controls): only slightly reduced steady state levels | level of S35-labeled polyglutamine ([1]; after chase for 24 hours, versus control cells): more than two fold lower | expression (synthesis) of expanded polyglutamine ([1]; one hour after chase): did not prevent the expression of expanded polyglutamine | turnover rate of S35-labeled Q79 ([1]; versus control cells): at least a two fold higher turnover rate | binding to 81-repeat polyglutamine polypeptide [2]: binds to expanded polyglutamines | disassembly of pre-formed poly-Q oligomers [3]: caused the disassembly of pre-formed poly-Q oligomers | expression of HSP40 or HSP70 [4]: did not induce the expression of HSP40 or HSP70 | fasting glucose levels in blood [5]: reduced the fasting glucose levels in blood
